Where “and” joins values, the source holds several entries; their conditions need not be identical. Equal values may be shown once.
Test: Pharmacokinetic study in rats: plasma 2C-B after IV/PO 2C-B or PO 2C-B prodrugs
Settings: for Tlast / AUC0-inf / AUC0-last / Cmax / T1/2 / AUC(0-t) / half-life / Tmax: analyte 2C-B in plasma; for AUC(0-t): AUC0-last
[1] = 2C-B dosed IV 1 mg/kg, male SD rats, individual animals, 1 mg/kg
[2] = 2C-B dosed oral 5 mg/kg, male SD rats, individual animals, 5 mg/kg
[3] = 2C-B dosed oral 10 mg/kg, male SD rats, individual animals, 10 mg/kg
[4] = male, Sprague-Dawley, rat, plasma, po, 5 mg/kg, 2C-B dosed oral 5 mg/kg, male SD rats, mean
[5] = oral dosing of 2C-B prodrug, rat, time 0.500 h, individual animal
[6] = oral dosing of 2C-B prodrug, rat, time 0.500 h, mean
[7] = oral dosing of 2C-B prodrug, rat, time 1.00 h, individual animal
[8] = oral dosing of 2C-B prodrug, rat, time 1.00 h, mean
[9] = oral dosing of 2C-B prodrug, rat, time 2.00 h, individual animal
[10] = oral dosing of 2C-B prodrug, rat, time 2.00 h, mean
[11] = oral dosing of 2C-B prodrug, rat, time 4.00 h, individual animal
[12] = oral dosing of 2C-B prodrug, rat, time 4.00 h, mean
[13] = oral dosing of 2C-B prodrug, rat, time 7.00 h, individual animal
[14] = oral dosing of 2C-B prodrug, rat, time 7.00 h, mean
[15] = oral dosing of 2C-B prodrug, rat, time 24.0 h, individual animal
[16] = oral dosing of 2C-B prodrug, rat, time 24.0 h, mean

Question: What does the source list for COc1cc(CCN)c(OC)cc1Br [Example 2C-B, 4-bromo-2,5-dimethoxyphenethylamine]?
Answer: Tlast (2C-B dosed IV 1 mg/kg, male SD rats, Mean* row (median calculated for Tlast)): 2 h; Tlast (2C-B dosed IV 1 mg/kg, male SD rats, individual animals): 2 h; AUC0-inf [1]: 72.0 ng·h/mL and 57.8 ng·h/mL; AUC0-last [1]: 71.0 ng·h/mL and 56.8 ng·h/mL; Cmax [1]: 85.0 ng/mL and 68.8 ng/mL; T1/2 [1]: 20.3 min and 22.2 min; AUC0-inf [2]: 92.0 ng·h/mL and 115 ng·h/mL and 193 ng·h/mL; AUC0-last [2]: 69.0 ng·h/mL and 103 ng·h/mL and 159 ng·h/mL; Cmax [2]: 29.5 ng/mL and 53.5 ng/mL; T1/2 [2]: 251 min and 454 min and 732 min; Tlast [2]: 7.00 h and 24.0 h (2×); Tlast (2C-B dosed oral 5 mg/kg, male SD rats, mean): 18.3 h; Tlast (2C-B dosed oral 10 mg/kg, male SD rats, Mean* row (median calculated for Tlast)): 7.0 h; AUC0-inf [3]: 66.8 ng·h/mL and 26.1 ng·h/mL; AUC0-last [3]: 40.9 ng·h/mL and 64.3 ng·h/mL and 23.8 ng·h/mL; Cmax [3]: 29.4 ng/mL and 37.9 ng/mL and 11.3 ng/mL; T1/2 [3]: 134 min; Tlast [3]: 2 h and 7 h (2×); AUC0-inf (male, Sprague-Dawley, rat, plasma, iv, 1 mg/kg, AUC0-inf, 2C-B dosed IV 1 mg/kg, male SD rats, individual animals): 68.6 ng·h/mL; AUC0-inf (male, Sprague-Dawley, rat, plasma, iv, 1 mg/kg, AUC0-inf, 2C-B dosed IV 1 mg/kg, male SD rats, mean of 3 animals): 66.1 ng·h/mL; AUC(0-t) (male, Sprague-Dawley, rat, plasma, iv, 1 mg/kg, 2C-B dosed IV 1 mg/kg, male SD rats, individual animals): 65.6 ng·h/mL; AUC(0-t) (male, Sprague-Dawley, rat, plasma, iv, 1 mg/kg, 2C-B dosed IV 1 mg/kg, male SD rats, mean of 3 animals): 64.5 ng·h/mL; Cmax (male, Sprague-Dawley, rat, plasma, iv, 1 mg/kg, Cmax, 2C-B dosed IV 1 mg/kg, male SD rats, individual animals): 72 ng/mL; Cmax (male, Sprague-Dawley, rat, plasma, iv, 1 mg/kg, Cmax, 2C-B dosed IV 1 mg/kg, male SD rats, mean of 3 animals): 75.3 ng/mL; half-life (male, Sprague-Dawley, rat, plasma, iv, 1 mg/kg, T1/2, 2C-B dosed IV 1 mg/kg, male SD rats, individual animals): 27.3 min; half-life (male, Sprague-Dawley, rat, plasma, iv, 1 mg/kg, T1/2, 2C-B dosed IV 1 mg/kg, male SD rats, mean of 3 animals): 23.3 min; AUC0-inf (male, Sprague-Dawley, rat, plasma, po, 5 mg/kg, AUC0-inf, 2C-B dosed oral 5 mg/kg, male SD rats, mean): 133 ng·h/mL; AUC(0-t) [4]: 110 ng·h/mL; Cmax (male, Sprague-Dawley, rat, plasma, po, 5 mg/kg, Cmax, 2C-B dosed oral 5 mg/kg, male SD rats, individual animals): 30.1 ng/mL; Cmax (male, Sprague-Dawley, rat, plasma, po, 5 mg/kg, Cmax, 2C-B dosed oral 5 mg/kg, male SD rats, mean): 37.7 ng/mL; half-life (male, Sprague-Dawley, rat, plasma, po, 5 mg/kg, T1/2, 2C-B dosed oral 5 mg/kg, male SD rats, mean): 479 min; Tmax (male, Sprague-Dawley, rat, plasma, po, 5 mg/kg, 2C-B dosed oral 5 mg/kg, male SD rats, individual animals): 30 min; Tmax [4]: 30 min; AUC0-inf (male, Sprague-Dawley, rat, plasma, po, 10 mg/kg, AUC0-inf, 2C-B dosed oral 10 mg/kg, male SD rats, mean): 46.5 ng·h/mL; AUC(0-t) (male, Sprague-Dawley, rat, plasma, po, 10 mg/kg, 2C-B dosed oral 10 mg/kg, male SD rats, mean): 43 ng·h/mL; Cmax (male, Sprague-Dawley, rat, plasma, po, 10 mg/kg, Cmax, 2C-B dosed oral 10 mg/kg, male SD rats, mean): 26.2 ng/mL; half-life (male, Sprague-Dawley, rat, plasma, po, 10 mg/kg, T1/2, 2C-B dosed oral 10 mg/kg, male SD rats, individual animals): 99 min; half-life (male, Sprague-Dawley, rat, plasma, po, 10 mg/kg, T1/2, 2C-B dosed oral 10 mg/kg, male SD rats, mean): 116 min; Tmax (male, Sprague-Dawley, rat, plasma, po, 10 mg/kg, 2C-B dosed oral 10 mg/kg, male SD rats, Mean* row (median calculated for Tmax)): 30 min; Tmax (male, Sprague-Dawley, rat, plasma, po, 10 mg/kg, 2C-B dosed oral 10 mg/kg, male SD rats, individual animals): 60 min

Question: Which results are given for COc1cc(CCNC(C)=O)c(OC)cc1Br [Example 4, N-(4-bromo-2,5-dimethoxyphenethyl)acetamide]?
Answer: Plasma Concentrations of metabolite 2C-B Following Oral Dosing (prodrug oral 10 mg/kg, male SD rats, time 0.500 h, individual animals): BLQ (BLQ: Below Lower Limit of Quanification (0.5 ng/mL)); Plasma Concentrations of metabolite 2C-B Following Oral Dosing (prodrug oral 10 mg/kg, male SD rats, time 0.500 h, mean): BLQ (BLQ: Below Lower Limit of Quanification (0.5 ng/mL)); Plasma Concentrations of metabolite 2C-B Following Oral Dosing (prodrug oral 10 mg/kg, male SD rats, time 1.00 h, individual animals): BLQ (BLQ: Below Lower Limit of Quanification (0.5 ng/mL)); Plasma Concentrations of metabolite 2C-B Following Oral Dosing (prodrug oral 10 mg/kg, male SD rats, time 1.00 h, mean): BLQ (BLQ: Below Lower Limit of Quanification (0.5 ng/mL)); Plasma Concentrations of metabolite 2C-B Following Oral Dosing (prodrug oral 10 mg/kg, male SD rats, time 2.00 h, individual animals): BLQ (BLQ: Below Lower Limit of Quanification (0.5 ng/mL)); Plasma Concentrations of metabolite 2C-B Following Oral Dosing (prodrug oral 10 mg/kg, male SD rats, time 2.00 h, mean): BLQ (BLQ: Below Lower Limit of Quanification (0.5 ng/mL)); Plasma Concentrations of metabolite 2C-B Following Oral Dosing (prodrug oral 10 mg/kg, male SD rats, time 4.00 h, individual animals): BLQ (BLQ: Below Lower Limit of Quanification (0.5 ng/mL)); Plasma Concentrations of metabolite 2C-B Following Oral Dosing (prodrug oral 10 mg/kg, male SD rats, time 4.00 h, mean): BLQ (BLQ: Below Lower Limit of Quanification (0.5 ng/mL)); Plasma Concentrations of metabolite 2C-B Following Oral Dosing (prodrug oral 10 mg/kg, male SD rats, time 7.00 h, individual animals): BLQ (BLQ: Below Lower Limit of Quanification (0.5 ng/mL)); Plasma Concentrations of metabolite 2C-B Following Oral Dosing (prodrug oral 10 mg/kg, male SD rats, time 7.00 h, mean): BLQ (BLQ: Below Lower Limit of Quanification (0.5 ng/mL)); Plasma Concentrations of metabolite 2C-B Following Oral Dosing (prodrug oral 10 mg/kg, male SD rats, time 24.0 h, individual animals): BLQ (BLQ: Below Lower Limit of Quanification (0.5 ng/mL)); Plasma Concentrations of metabolite 2C-B Following Oral Dosing (prodrug oral 10 mg/kg, male SD rats, time 24.0 h, mean): BLQ (BLQ: Below Lower Limit of Quanification (0.5 ng/mL))

Question: What does the source list for COc1cc(CCNC(=O)C(F)(F)F)c(OC)cc1Br [Example 5, N-(4-bromo-2,5-dimethoxyphenethyl)-2,2,2-trifluoroacetamide]?
Answer: Plasma Concentrations of metabolite 2C-B Following Oral Dosing [5]: BLQ (BLQ: Below Lower Limit of Quanification (0.5 ng/mL)); Plasma Concentrations of metabolite 2C-B Following Oral Dosing [6]: BLQ (BLQ: Below Lower Limit of Quanification (0.5 ng/mL)); Plasma Concentrations of metabolite 2C-B Following Oral Dosing [7]: BLQ (BLQ: Below Lower Limit of Quanification (0.5 ng/mL)); Plasma Concentrations of metabolite 2C-B Following Oral Dosing [8]: BLQ (BLQ: Below Lower Limit of Quanification (0.5 ng/mL)); Plasma Concentrations of metabolite 2C-B Following Oral Dosing [9]: BLQ (BLQ: Below Lower Limit of Quanification (0.5 ng/mL)); Plasma Concentrations of metabolite 2C-B Following Oral Dosing [10]: BLQ (BLQ: Below Lower Limit of Quanification (0.5 ng/mL)); Plasma Concentrations of metabolite 2C-B Following Oral Dosing [11]: BLQ (BLQ: Below Lower Limit of Quanification (0.5 ng/mL)); Plasma Concentrations of metabolite 2C-B Following Oral Dosing [12]: BLQ (BLQ: Below Lower Limit of Quanification (0.5 ng/mL)); Plasma Concentrations of metabolite 2C-B Following Oral Dosing [13]: BLQ (BLQ: Below Lower Limit of Quanification (0.5 ng/mL)); Plasma Concentrations of metabolite 2C-B Following Oral Dosing [14]: BLQ (BLQ: Below Lower Limit of Quanification (0.5 ng/mL)); Plasma Concentrations of metabolite 2C-B Following Oral Dosing [15]: BLQ (BLQ: Below Lower Limit of Quanification (0.5 ng/mL)); Plasma Concentrations of metabolite 2C-B Following Oral Dosing [16]: BLQ (BLQ: Below Lower Limit of Quanification (0.5 ng/mL))

Question: Which “Plasma Concentrations of metabolite 2C-B Following Oral Dosing” value (“Plasma Concentrations” below) [5] does the source give for COc1cc(CCNC(=O)CN(C)C(=O)[C@H](Cc2ccccc2)NC(=O)OC(C)(C)C)c(OC)cc1Br [Example 10, tert-butyl (S)-(1-((2-((4-bromo-2,5-dimethoxyphenethyl)amino)-2-oxoethyl)(methyl)amino)-1-oxo-3-phenylpropan-2-yl)carbamate] here?
Answer: BLQ (BLQ: Below Lower Limit of Quanification (0.5 ng/mL))

Question: What about the “Plasma Concentrations” value [6] of the same molecule?
Answer: BLQ (BLQ: Below Lower Limit of Quanification (0.5 ng/mL))

Question: And the “Plasma Concentrations” value [7]?
Answer: BLQ (BLQ: Below Lower Limit of Quanification (0.5 ng/mL))

Question: What about the “Plasma Concentrations” value [8] of the same molecule?
Answer: BLQ (BLQ: Below Lower Limit of Quanification (0.5 ng/mL))

Question: And the “Plasma Concentrations” value [9]?
Answer: BLQ (BLQ: Below Lower Limit of Quanification (0.5 ng/mL))

Question: What about the “Plasma Concentrations” value [10] of the same molecule?
Answer: BLQ (BLQ: Below Lower Limit of Quanification (0.5 ng/mL))

Question: And the “Plasma Concentrations” value [11]?
Answer: BLQ (BLQ: Below Lower Limit of Quanification (0.5 ng/mL))

Question: What about the “Plasma Concentrations” value [12] of the same molecule?
Answer: BLQ (BLQ: Below Lower Limit of Quanification (0.5 ng/mL))

Question: What about the “Plasma Concentrations” value [13] of the same molecule?
Answer: BLQ (BLQ: Below Lower Limit of Quanification (0.5 ng/mL))

Question: And the “Plasma Concentrations” value [14]?
Answer: BLQ (BLQ: Below Lower Limit of Quanification (0.5 ng/mL))

Question: And the “Plasma Concentrations” value [15]?
Answer: BLQ (BLQ: Below Lower Limit of Quanification (0.5 ng/mL))

Question: And the “Plasma Concentrations” value [16]?
Answer: BLQ (BLQ: Below Lower Limit of Quanification (0.5 ng/mL))
